Values joined by “and” are separate entries in the source; they are usually repeats but may differ in a detail not shown here. Identical values can stand only once. Blank lines part the entries; values can stand above or below the compound they belong to.
What was measured:
P-glycoprotein (P-gp) = target: T1, P-glycoprotein (P-gp) (Homo sapiens, UniProt P08183); experiment: Rhodamine 123 (P-gp substrate) transport across drug-treated Caco-2 cell monolayers; assay type: cell-based; details: co-incubated with R123, 10 μM, Caco-2 monolayer, Fig 6
T1 construct: The transport of R123 in normal Caco-2 cell monolayers or drug-treated Caco-2 cell monolayers was further studied; host or cells: Caco-2
Excerpt: (§1) The human epithelial cell line Caco-2 serves as a widely recognized model for the intestinal epithelial barrier, frequently utilized in the assessment of drug absorption and transport mechanisms. In this study, we evaluated drug absorption and distribution in vitro with the help of the Caco-2 cell model. Caco-2 cells were purchased from the Chinese Academy of Medical Sciences (Beijing, China, Resource No. 3111C0001CCC000100). The cells were resuscitated and inserted into culture flasks. Caco-2 cells were passaged with DMEM high glucose medium containing 10% (V/V) FBS, 1% (V/V) non-essential amino acid solution and 100 U/mL penicillin-streptomycin double antibiotic solution, and cultured at 37°C in a 5% CO2 incubator. […] The integrity of the cell monolayer was checked by measuring the transmembrane electrical resistance (TEER) of the monolayer cells with a Millicell-ERS electrode (Millipore Corp., Billerica, MA, USA). Caco-2 cells were used for transport experiments 17–21 days after inoculation. Besides, only monolayers with TEER values above 400 Ω/cm^2 were used in the study.
The transport of R123 in normal Caco-2 cell monolayers or drug-treated Caco-2 cell monolayers was further studied. […] The transport buffer containing 5 μM of R123 was added on either the AP or the BL side of the inserts, as described above. […] The concentrations of R123 were immediately analyzed by SpectraMax iD3. The excitation wavelength was set at 485 nm, and the emission wavelength at 535 nm. Papp values across the cell monolayers were calculated according to the equation: Papp = dQ/dt × 1/(A × C0), where dQ/dt represents the rate of drug transport. […] The efflux ratio was calculated using the Papp (BL-AP) to Papp (AP-BL) ratio.

[1] = tested on: Plasmodium yoelii (P. yoelii); experiment: Peters' four-day inhibition method, P. yoelii murine malaria model; assay type: in vivo, ICR mice; details: individual mice
Procedure: (§2) In vivo evaluation of antimalarial activity was performed using the classical Peters’ four-day inhibition method. A murine malaria model was constructed by intraperitoneal injection of 5.00 × 10^7 Plasmodium yoelii (P. yoelii)- or Plasmodium berghei (P. berghei)-infected erythrocytes. […] Mice were gavaged once 4 hours after infection with medicated soybean oil or the test drug (gavage standard was 0.20 mL/10 g), and the drug was administered orally for 4 consecutive days. Four hours after the last dose, blood was collected from the tail tip of the mice to make a thin blood smear. The smear was air-dried, fixed in methanol, stained with Giemsa for 30 minutes, then rinsed with distilled water, air-dried at room temperature, and visualized for malaria infection under a microscope (OLYMPUS BX43) at 100x oil immersion. The inhibition ratio (%) for each group was calculated using the following equations:
(§3) Inhibitionratio(%)=(infectionratiocontrolgroup−infectionratiotreatmentgroup)/infectionratiocontrolgroup×100

[2] = tested on: Plasmodium berghei (P. berghei); experiment: Peters' four-day inhibition method, P. berghei murine malaria model; assay type: in vivo, ICR mice; details: individual mice
Procedure: as §2, §3

[3] = Bidirectional transport of ART across Caco-2 cell monolayers (LC-MS/MS); assay type: in vitro ADME, human; details: human, Caco-2 monolayer, n = 3
Excerpt: as §1, with “17-21” for “17–21”, “study. […] To prepare drug-treated Caco-2 cell monolayers, Caco-2 cells cultured in Transwell® inserts were aseptically treated on day 21 with 10 μM of […] and nACTs. […] The excitation wavelength was set at 485 nm, and the emission wavelength at 535 nm. […] The efflux ratio was calculated using the Papp (BL-AP) to Papp (AP-BL) ratio. […] The solvent gradient was 65%B-95%B for 0-5 min; 95%B for 5-6 min; and 35%B for 6-9 min.” for “study.”

Caco-2 cell monolayers = experiment: as above; assay type: in vitro ADME, human; details: for transhipment of ART, AP-BL / transhipment of ART, Transepithelial transport in BL-to-AP: single replicate; for ART concentration per group, summary block: summary used for cumulative amount
Excerpt: as §1, with “17-21” for “17–21”, “study. […] To prepare drug-treated Caco-2 cell monolayers, Caco-2 cells cultured in Transwell® inserts were aseptically treated on day 21 with 10 μM of […] and nACTs. […] The excitation wavelength was set at 485 nm, and the emission wavelength at 535 nm. […] The efflux ratio was calculated using the Papp (BL-AP) to Papp (AP-BL) ratio. […] The solvent gradient was 65%B-95%B for 0-5 min; 95%B for 5-6 min; and 35%B for 6-9 min.” for “study.”

[4] = Caco-2, ART given as nACTs equivalent to 10 μM ART
[5] = sample code A: apical(AP), 30 min
[6] = sample code A: apical(AP), 60 min
[7] = sample code A: apical(AP), 90 min
[8] = sample code A: apical(AP), 120 min
[9] = sample code A: apical(AP), 150 min
[10] = sample code A: apical(AP), 180 min
[11] = sample code B: basolateral (BL), 30 min
[12] = sample code B: basolateral (BL), 60 min
[13] = sample code B: basolateral (BL), 90 min
[14] = sample code B: basolateral (BL), 120 min
[15] = sample code B: basolateral (BL), 150 min
[16] = sample code B: basolateral (BL), 180 min

T1 sequence (P08183 whole entry): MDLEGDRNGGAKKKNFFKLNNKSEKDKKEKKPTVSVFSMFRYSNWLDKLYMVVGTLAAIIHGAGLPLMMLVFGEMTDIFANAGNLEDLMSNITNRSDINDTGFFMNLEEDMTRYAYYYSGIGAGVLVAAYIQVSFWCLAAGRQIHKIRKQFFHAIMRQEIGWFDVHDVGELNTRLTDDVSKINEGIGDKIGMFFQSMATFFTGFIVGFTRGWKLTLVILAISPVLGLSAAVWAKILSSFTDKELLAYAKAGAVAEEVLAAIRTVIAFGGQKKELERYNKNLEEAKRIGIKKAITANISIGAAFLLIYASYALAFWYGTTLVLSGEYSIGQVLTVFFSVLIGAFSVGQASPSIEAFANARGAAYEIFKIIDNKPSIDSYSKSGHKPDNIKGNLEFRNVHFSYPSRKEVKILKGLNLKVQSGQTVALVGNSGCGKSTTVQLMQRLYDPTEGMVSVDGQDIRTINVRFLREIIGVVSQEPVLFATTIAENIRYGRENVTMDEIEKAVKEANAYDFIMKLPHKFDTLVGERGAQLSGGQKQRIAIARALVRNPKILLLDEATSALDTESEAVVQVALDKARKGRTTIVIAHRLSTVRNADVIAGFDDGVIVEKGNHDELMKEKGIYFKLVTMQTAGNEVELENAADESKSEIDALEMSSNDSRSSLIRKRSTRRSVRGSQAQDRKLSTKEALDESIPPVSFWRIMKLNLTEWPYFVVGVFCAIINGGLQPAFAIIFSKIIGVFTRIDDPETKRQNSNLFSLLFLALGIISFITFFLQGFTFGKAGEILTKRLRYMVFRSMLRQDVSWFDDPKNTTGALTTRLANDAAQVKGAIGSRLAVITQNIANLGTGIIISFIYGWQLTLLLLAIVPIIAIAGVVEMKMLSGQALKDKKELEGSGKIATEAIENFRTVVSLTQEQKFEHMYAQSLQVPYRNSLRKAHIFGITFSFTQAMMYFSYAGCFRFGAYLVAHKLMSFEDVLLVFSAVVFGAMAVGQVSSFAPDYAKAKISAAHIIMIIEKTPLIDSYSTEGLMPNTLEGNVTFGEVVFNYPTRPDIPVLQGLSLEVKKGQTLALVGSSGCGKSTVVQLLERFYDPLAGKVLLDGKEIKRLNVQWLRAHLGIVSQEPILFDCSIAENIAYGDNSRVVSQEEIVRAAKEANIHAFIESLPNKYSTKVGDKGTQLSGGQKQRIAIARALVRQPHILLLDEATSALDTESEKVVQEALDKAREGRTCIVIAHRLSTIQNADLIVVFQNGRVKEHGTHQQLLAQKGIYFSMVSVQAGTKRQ

reduction of R123 transport from the BL side to the AP side (P-glycoprotein (P-gp)): 22.40%
Structure (SMILES): C[C@@H]1CC[C@H]2[C@@H](C)C(=O)O[C@@H]3O[C@@]4(C)CC[C@@H]1[C@]32O4 [DEART, Deoxyartemisinin]

Structure (SMILES): C[C@@H]1CC[C@H]2[C@@H](C)C(=O)O[C@@H]3O[C@@]4(C)CC[C@@H]1[C@]32OO4 [ART, Artemisinin, reference compound]
parasitemia% ([1]; 5.68 mg/kg): 70.2912% and 67.0337% and 68.4147% and 69.5326% and 69.0526% | parasitemia% ([1]; 11.368 mg/kg): 34.1852% and 49.4174% and 42.0754% and 41.1875% and 34.5379% | parasitemia% ([1]; 22.736 mg/kg): 1.979% and 6.804% and 2.98% and 0.248% and 3.003% | parasitemia% ([2]; 5.68 mg/kg): 73.4143% and 71.7174% and 72.6074% and 72.7168% and 72.6183% | parasitemia% ([2]; 11.368 mg/kg): 41.4175% and 45.3752% and 36.8615% and 43.5062% and 35.724% | parasitemia% ([2]; 22.736 mg/kg): 2.697% and 7.338% and 4.202% and 2.082% and 5.536% | Papp A→B at 180 min, 10 μM ([3]; Caco-2, 10 μM ART alone (PU)): 7.49 ± 0.35 ×10⁻⁶ cm/s | Papp B→A at 180 min, 10 μM ([3]; Caco-2, 10 μM ART alone (PU)): 82.3 ± 2.1 ×10⁻⁶ cm/s | Papp A→B at 180 min, 10 μM [3, 4]: 8.42 ± 0.37 ×10⁻⁶ cm/s | Papp B→A at 180 min, 10 μM [3, 4]: 52.7 ± 2.3 ×10⁻⁶ cm/s | transhipment of ART, AP-BL (Caco-2 cell monolayers; 30 min): 3.69 nmol and 3.84 nmol and 3.71 nmol | transhipment of ART, AP-BL (Caco-2 cell monolayers; 60 min): 5.02 nmol and 5.27 nmol and 5.14 nmol | transhipment of ART, AP-BL (Caco-2 cell monolayers; 90 min): 7.24 nmol and 7.11 nmol and 7.33 nmol | transhipment of ART, AP-BL (Caco-2 cell monolayers; 120 min): 8.97 nmol and 9.16 nmol and 9.09 nmol | transhipment of ART, AP-BL (Caco-2 cell monolayers; 150 min): 10.67 nmol and 10.60 nmol and 10.62 nmol | transhipment of ART, AP-BL (Caco-2 cell monolayers; 180 min): 11.97 nmol (2×) and 11.99 nmol | transhipment of ART, Transepithelial transport in BL-to-AP (Caco-2 cell monolayers; 30 min): 28.49 nmol and 28.67 nmol and 28.4 nmol | transhipment of ART, Transepithelial transport in BL-to-AP (Caco-2 cell monolayers; 60 min): 55.39 nmol and 55.5 nmol and 55.82 nmol | transhipment of ART, Transepithelial transport in BL-to-AP (Caco-2 cell monolayers; 90 min): 69.96 nmol and 69.87 nmol and 69.99 nmol | transhipment of ART, Transepithelial transport in BL-to-AP (Caco-2 cell monolayers; 120 min): 90.64 nmol and 90.48 nmol and 90.67 nmol | transhipment of ART, Transepithelial transport in BL-to-AP (Caco-2 cell monolayers; 150 min): 106.51 nmol and 106.61 nmol and 106.74 nmol | transhipment of ART, Transepithelial transport in BL-to-AP (Caco-2 cell monolayers; 180 min): 124.37 nmol and 124.58 nmol and 124.56 nmol | ART original concentration, single replicate (Caco-2 cell monolayers; [5]): 786.91 ng/mL and 1910.44 ng/mL and 2313.90 ng/mL | ART original concentration, column mean (Caco-2 cell monolayers; [5]): 2112.17 ng/mL | ART concentration per group, summary block (Caco-2 cell monolayers; [5]): 2112.17 ng/mL | ART original concentration, single replicate (Caco-2 cell monolayers; [6]): 2149.07 ng/mL and 2049.02 ng/mL and 3232.78 ng/mL | ART original concentration, column mean (Caco-2 cell monolayers; [6]): 2640.90 ng/mL | ART concentration per group, summary block (Caco-2 cell monolayers; [6]): 2476.96 ng/mL | ART original concentration, single replicate (Caco-2 cell monolayers; [7]): 2915.94 ng/mL and 2813.25 ng/mL and 3472.39 ng/mL | ART original concentration, column mean (Caco-2 cell monolayers; [7]): 3142.82 ng/mL | ART concentration per group, summary block (Caco-2 cell monolayers; [7]): 3067.20 ng/mL | ART original concentration, single replicate (Caco-2 cell monolayers; [8]): 3594.17 ng/mL and 3318.58 ng/mL and 3006.12 ng/mL | ART original concentration, column mean (Caco-2 cell monolayers; [8]): 3162.35 ng/mL | ART concentration per group, summary block (Caco-2 cell monolayers; [8]): 3306.29 ng/mL | ART original concentration, single replicate (Caco-2 cell monolayers; [9]): 3213.69 ng/mL and 2917.70 ng/mL and 3363.12 ng/mL | ART original concentration, column mean (Caco-2 cell monolayers; [9]): 3140.41 ng/mL | ART concentration per group, summary block (Caco-2 cell monolayers; [9]): 3164.84 ng/mL | ART original concentration, single replicate (Caco-2 cell monolayers; [10]): 2674.58 ng/mL and 2920.77 ng/mL and 2532.18 ng/mL | ART original concentration, column mean (Caco-2 cell monolayers; [10]): 2726.47 ng/mL | ART concentration per group, summary block (Caco-2 cell monolayers; [10]): 2709.18 ng/mL | ART original concentration, single replicate (Caco-2 cell monolayers; [11]): 5260.58 ng/mL and 5169.96 ng/mL and 5652.08 ng/mL | ART concentration per group, summary block (Caco-2 cell monolayers; [11]): 5360.87 ng/mL | ART original concentration, single replicate (Caco-2 cell monolayers; [12]): 8719.34 ng/mL and 7267.89 ng/mL and 12129.77 ng/mL | ART original concentration, column mean (Caco-2 cell monolayers; [12]): 9698.83 ng/mL | ART concentration per group, summary block (Caco-2 cell monolayers; [12]): 9372.33 ng/mL | ART original concentration, single replicate (Caco-2 cell monolayers; [13]): 9503.98 ng/mL and 6910.68 ng/mL and 13549.62 ng/mL | ART original concentration, column mean (Caco-2 cell monolayers; [13]): 10230.15 ng/mL | ART concentration per group, summary block (Caco-2 cell monolayers; [13]): 9988.09 ng/mL | ART original concentration, single replicate (Caco-2 cell monolayers; [14]): 10562.24 ng/mL and 7482.04 ng/mL and 15676.89 ng/mL | ART original concentration, column mean (Caco-2 cell monolayers; [14]): 11579.46 ng/mL | ART concentration per group, summary block (Caco-2 cell monolayers; [14]): 11240.39 ng/mL | ART original concentration, single replicate (Caco-2 cell monolayers; [15]): 9970.47 ng/mL and 7130.75 ng/mL and 15441.45 ng/mL | ART original concentration, column mean (Caco-2 cell monolayers; [15]): 11286.10 ng/mL | ART concentration per group, summary block (Caco-2 cell monolayers; [15]): 10847.56 ng/mL | ART original concentration, single replicate (Caco-2 cell monolayers; [16]): 7047.15 ng/mL and 14960.70 ng/mL and 8594.06 ng/mL | ART original concentration, column mean (Caco-2 cell monolayers; [16]): 11777.38 ng/mL | ART concentration per group, summary block (Caco-2 cell monolayers; [16]): 10200.64 ng/mL

Reference: paper PMC12058161, “The plant matrix of Artemisia annua L. for the treatment of malaria: Pharmacodynamic and pharmacokinetic studies” (PLOS One, 2025)
